Test [1] addresses T1, human GCN2 full-length protein (Homo sapiens, UniProt Q9P2K8).
T1 construct: purchased Carna Biosciences, Inc
As to the kind of experiment: GCN2 enzyme inhibition assay (LanthaScreen TR-FRET). Type of test: biochemical. Conditions: GCN2 enzyme inhibitory activity at compound concentration of 3 μM. In short, it runs like this: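 Full-length human GCN2 was preincubated with compound for 1 hr at room temperature, then reacted for 1 hr with substrate and ATP added from a 570 μM ATP / 390 nM substrate solution (stock concentrations). Phosphorylation was detected by TR-FRET with a terbium-labelled anti-eIF2alpha antibody after 1 hr, with enzyme-free wells as control.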

Test [2] relates to osteosarcoma cell line U-2-OS. Kind of test: In vitro cell proliferation inhibition assay (CellTiter-Glo, low amino acid media). Format: cell-based. Conditions: McCoy's 5A low amino acid media. A digest of the protocol: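 Cells seeded at 1000 per well in McCoy's 5A low amino acid medium (25% amino acid content), then exposed to compound for 72 h at 37° C., 5% CO2. ATP measured by CellTiter-Glo luminescence. Inhibition (%) at 100 nM calculated relative to pre-treatment and untreated control wells.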
In general terms: In ATP-based viability assays light output follows the ATP content of the culture.

Test [3] has as its system ATF4 expression in CCRF-CEM tumor. As to the kind of experiment: In vivo ATF4 expression suppression assay (Western blot of CCRF-CEM xenograft tumor) in the presence of L-asparaginase. Conditions: compound 10 mg/kg oral 8 hr before tumor removal, L-asparaginase 1000 U/kg s.c. 32 hr and 8 hr before, CCRF-CEM xenograft in SCID mouse. An excerpt:
One million human acute lymphoblastic leukemia cell lines CCRF-CEM obtained from ATCC (American Type Culture Collection) were suspended in Matrigel solution (Corning) and implanted subcutaneously into 6-week-old female SCID mouse (CLEA Japan, Inc.) by injection. The mice in which the tumor engrafted to a size of about 200-1000 mm^3 tumor volume after transplantation were selected and 3 mice per group were used for the experiment. L-asparaginase (Kyowa Hakko Kogyo Co., Ltd.) was subcutaneously administered at a dose of 1000 U/kg 32 hr and 8 hr before tumor removal. A 0.5% methylcellulose suspension of the compound was orally administered at a dose of 10 mg/kg 8 hr before tumor removal. After tumor removal, protein was extracted using Lysing Matrix I tube (MP Biomedicals) containing a protein extract (10% glycerol, 1% sodium dodecyl sulfate, 62.5 mM Tris-HCl [pH 7.5], protease and phosphatase inhibitors [Complete mini and PhosSTOP, Sigma-Aldrich Co. LLC.]) and subjected to Western blot.
Protein extract solution was subjected to protein quantification with BCA Protein Assay Kit (Thermo Scientific), electrophoresed on 7.5-15% SDS-PAGE gel (DRC), and protein in the gel was transferred to PVDF membrane. The membrane was blocked with Starting Block T20 (PBS) Blocking Buffer (Thermo Scientific). […] Thereafter, chemiluminescence was performed using ImmunoStar LD (Wako Pure Chemical Industries, Ltd.), and luminescence intensity was measured by LAS-3000 image analyzer (Fuji Film Co., Ltd.). Furthermore, the expression level of ATF4 was digitized by quantifying the luminescence intensity using Multi Gauge Ver. […]
Based on the ATF4 expression level of the control group orally administered with 0.5% methylcellulose suspension free of Example compound and the treatment group orally administered with Example compound suspension, the ATF4 expression inhibition ratio (%) of the test compound at a compound dose 10 mg/kg was calculated by the following formula and the results thereof are shown in Table 6. […]
In general terms: Immunoblotting shows a protein as a band on a membrane.

The test system of test [4] is human acute lymphoblastic leukemia cells CCRF-CEM. Kind of test: In vivo tumor proliferation inhibitory assay with combined use of asparaginase (CCRF-CEM xenograft). The note with it: CCRF-CEM xenograft in SCID mouse. The text has this:
One million human acute lymphoblastic leukemia cells CCRF-CEM obtained from ATCC (American Type Culture Collection) were suspended in Matrigel solution (Corning) and implanted subcutaneously into 6-week-old female SCID mouse (CLEA Japan, Inc.) by injection. The mice in which the tumor engrafted to a size of about 200 mm^3 tumor volume after transplantation were selected and 5 mice per group were used for the experiment. A 0.5% methylcellulose suspension of the compound was orally administered twice per day for 9 days. Each compound was administered twice per day and the dose was 10 mg/kg for Example 14 and Example 7, and 6 mg/kg for Example 4. L-asparaginase (Kyowa Hakko Kogyo Co., Ltd.) was subcutaneously administered once per day at a dose of 1000 U/kg. Tumor diameter was measured one day before start of the administration and day 9 of the administration, and the tumor volume was calculated by the formula 1. tumor volume=major axis×minor axis×minor axis×(½) Formula 1
Tumor proliferation inhibitory rate (%) was calculated by the formula 2. tumor proliferation inhibitory rate (%)=(1−(T9−T0)/(C9−C0))×100 Formula 2 T9: average tumor volume of test drug administration group on day 9 of administration, T0: average tumor volume of test drug administration group one day before start of administration, C9: average tumor volume of control group on day 9 of administration, C0: average tumor volume of control group one day before start of administration

T1 sequence (Q9P2K8 whole entry): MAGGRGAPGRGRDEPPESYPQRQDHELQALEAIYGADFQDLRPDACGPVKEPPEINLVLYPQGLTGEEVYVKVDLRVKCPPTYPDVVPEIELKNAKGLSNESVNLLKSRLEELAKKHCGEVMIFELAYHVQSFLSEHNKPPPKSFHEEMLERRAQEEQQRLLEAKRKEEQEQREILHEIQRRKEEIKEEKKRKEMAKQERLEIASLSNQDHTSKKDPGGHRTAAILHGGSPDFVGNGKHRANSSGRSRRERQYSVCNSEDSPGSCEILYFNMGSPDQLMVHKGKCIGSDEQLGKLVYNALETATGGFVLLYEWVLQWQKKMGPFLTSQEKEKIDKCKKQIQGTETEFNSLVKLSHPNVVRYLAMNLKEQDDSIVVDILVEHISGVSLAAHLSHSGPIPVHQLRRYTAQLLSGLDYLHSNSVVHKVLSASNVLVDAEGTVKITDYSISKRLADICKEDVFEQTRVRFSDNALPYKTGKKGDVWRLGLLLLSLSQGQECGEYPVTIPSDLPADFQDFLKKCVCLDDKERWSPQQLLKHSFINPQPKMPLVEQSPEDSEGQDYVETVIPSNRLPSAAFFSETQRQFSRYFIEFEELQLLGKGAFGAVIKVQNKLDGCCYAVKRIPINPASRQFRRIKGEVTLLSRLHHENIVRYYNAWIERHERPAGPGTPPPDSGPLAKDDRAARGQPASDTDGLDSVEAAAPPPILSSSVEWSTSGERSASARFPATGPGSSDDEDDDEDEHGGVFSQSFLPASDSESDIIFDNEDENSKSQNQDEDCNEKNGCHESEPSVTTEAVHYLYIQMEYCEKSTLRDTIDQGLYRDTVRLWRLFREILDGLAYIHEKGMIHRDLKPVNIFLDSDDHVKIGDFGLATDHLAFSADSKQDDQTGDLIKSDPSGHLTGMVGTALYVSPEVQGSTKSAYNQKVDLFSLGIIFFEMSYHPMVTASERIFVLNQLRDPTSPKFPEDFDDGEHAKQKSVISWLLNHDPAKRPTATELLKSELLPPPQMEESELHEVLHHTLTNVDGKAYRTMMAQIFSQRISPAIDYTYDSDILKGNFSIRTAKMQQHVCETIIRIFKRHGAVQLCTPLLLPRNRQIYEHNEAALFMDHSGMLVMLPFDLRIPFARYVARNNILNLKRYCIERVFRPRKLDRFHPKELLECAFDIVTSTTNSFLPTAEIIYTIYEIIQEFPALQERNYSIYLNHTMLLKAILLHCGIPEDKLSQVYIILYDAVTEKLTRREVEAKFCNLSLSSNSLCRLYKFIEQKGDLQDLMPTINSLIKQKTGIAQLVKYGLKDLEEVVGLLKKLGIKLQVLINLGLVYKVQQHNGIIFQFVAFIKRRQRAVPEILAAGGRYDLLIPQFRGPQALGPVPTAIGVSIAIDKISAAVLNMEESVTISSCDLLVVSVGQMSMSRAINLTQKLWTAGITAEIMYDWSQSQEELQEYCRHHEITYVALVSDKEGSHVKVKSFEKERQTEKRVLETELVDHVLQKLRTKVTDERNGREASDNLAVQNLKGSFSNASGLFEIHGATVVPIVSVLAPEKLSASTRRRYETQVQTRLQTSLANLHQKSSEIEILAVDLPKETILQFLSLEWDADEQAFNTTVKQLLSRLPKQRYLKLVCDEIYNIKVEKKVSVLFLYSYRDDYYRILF

As to `O=S(=O)(Nc1ccc(F)c(C#Cc2cnc3[nH]ncc3c2)c1F)c1cc(Cl)ccc1Cl` [Example 14, 2,5-dichloro-N-(2,4-difluoro-3-(1H-pyrazolo[3,4-b]pyridin-5-ylethynyl)phenyl)benzenesulfonamide], the inhibitory rate amounted to 98% in test [1] (Table 3-1, 3 µM) and 42% in test [2] (72 hr, Table 4-1). In addition, in test [3], the “in vivo ATF4 expression inhibition ratio (%)” value was determined as 63%. Moreover, in test [4] (GCN2 inhibitor alone, 10 mg/kg oral twice per day for 9 days), the “in vivo tumor proliferation inhibitory rate (%), GCN2 inhibitor” value is 1%. Further, in test [4] (compound 10 mg/kg oral twice per day for 9 days combined with L-asparaginase 1000 U/kg s.c. once per day), the “in vivo tumor proliferation inhibitory rate (%), combined use” value was 64%.
With `Cc1ncc(Cl)cc1S(=O)(=O)Nc1ccc(F)c(C#Cc2cnc(N[C@@H](C)CO)nc2)c1F` [Example 193, 5-chloro-N-(2,4-difluoro-3-((2-(((2S)-1-hydroxypropan-2-yl)amino)pyrimidin-5-yl)ethynyl)phenyl)-2-methylpyridine-3-sulfonamide], in test [1] (Table 3-2, read-out: inhibitory rate), the inhibition at 3 µM stood at 98%. In test [2] (Homo sapiens, U2OS, 72 h, cell proliferation inhibitory rate, Table 4-2), this molecule had an inhibition at 0.1 µM of 64%.
